Test results: patent US11051515B2, “3-acyl-benzamides and their use as herbicides” (Bayer Aktiengesellschaft, priority 2017, dated 2021)

Columns and labels:
ALOMY = experiment: Pre-emergence action against ALOMY; format: in vivo, Alopecurus myosuroides; settings: dosage 320 g/ha; pre-emergence; scored visually after 3 weeks vs untreated controls; 100% = plants have died, 0% = like control plants
From the text: (§1) Seeds of monocotyledonous and dicotyledonous weed plants and crop plants are laid out in sandy loam soil in wood-fiber pots and covered with soil. The compounds of the invention, formulated in the form of wettable powders (WP) or as emulsion concentrates (EC), are then applied to the surface of the covering soil in the form of an aqueous suspension or emulsion at a water application rate equating to […], with addition of 0.2% wetting agent. After the treatment, the pots are placed in a greenhouse and kept under good growth conditions for the trial plants. The damage to the test plants is scored visually after a test period of 3 weeks by comparison with untreated controls (herbicidal activity in percent (%): 100% activity=the plants have died, 0% activity=like control plants).

ECHCG [1] = experiment: Pre-emergence action against ECHCG; format: in vivo, Echinochloa crus-galli; settings: pre-emergence, dosage 320 g/ha, scored visually after 3 weeks vs untreated controls
From the text: as §1

SETVI = experiment: Pre-emergence action against SETVI; format: in vivo, Setaria viridis; settings: pre-emergence, dosage 320 g/ha, scored visually after 3 weeks vs untreated controls
From the text: as §1

ABUTH [2] = experiment: Pre-emergence action against ABUTH; format: in vivo, Abutilon theophrasti; settings: pre-emergence, dosage 320 g/ha, scored visually after 3 weeks vs untreated controls
From the text: as §1

AMARE [3] = experiment: Pre-emergence action against AMARE; format: in vivo, Amaranthus retroflexus; settings: pre-emergence, dosage 320 g/ha, scored visually after 3 weeks vs untreated controls; for pest or weed control at 320 g/ha: Amaranthus retroflexus, 504 h, read-out: Pre-emergence action against AMARE (herbicidal activity)
From the text: as §1

MATIN [4] = experiment: Pre-emergence action against MATIN; format: in vivo, Matricaria inodora; settings: Dosage 320 g/ha, pre-emergence; for pest or weed control at 320 g/ha: Tripleurospermum inodorum, 504 h
From the text: as §1

STEME [5] = experiment: Pre-emergence action against STEME; format: in vivo, Stellaria media; settings: Dosage 320 g/ha, pre-emergence
From the text: as §1

VIOTR [6] = experiment: Pre-emergence action against VIOTR; format: in vivo, Viola tricolor; settings: Dosage 320 g/ha, pre-emergence
From the text: as §1

VERPE [7] = experiment: Pre-emergence action against VERPE; format: in vivo, Veronica persica; settings: Dosage 320 g/ha, pre-emergence; for pest or weed control at 320 g/ha: Veronica persica, 504 h
From the text: as §1

ECHCG [8] = experiment: Post-emergence action against ECHCG; format: in vivo, Echinochloa crus-galli; settings: post-emergence, dosage 80 g/ha, visual assessment about 3 weeks after treatment vs untreated controls
Protocol: (§2) Seeds of monocotyledonous and dicotyledonous weed and crop plants are laid out in sandy loam soil in wood-fiber pots, covered with soil and cultivated in a greenhouse under good growth conditions. 2 to 3 weeks after sowing, the test plants are treated at the one-leaf stage. The compounds of the invention, formulated in the form of wettable powders (WP) or as emulsion concentrates (EC), are then sprayed onto the green parts of the plants in the form of an aqueous suspension or emulsion at a water application rate equating to […], with addition of 0.2% wetting agent. After the test plants have been left to stand in the greenhouse under optimal growth conditions for about 3 weeks, the action of the preparations is assessed visually in comparison to untreated controls (herbicidal action in percent (%): 100% activity=the plants have died, 0% activity=like control plants). […] At the same time, inventive compounds leave Gramineae crops such as barley, wheat, rye, millet/Sorghum, corn or rice virtually undamaged when applied post-emergence, even at high active ingredient dosages. In addition, some substances are also harmless to dicotyledonous crops such as soya, cotton, oilseed rape, sugar beet or potatoes. Some of the compounds according to the invention have high selectivity and are therefore suitable for controlling unwanted vegetation in agricultural crops by the post-emergence method. The data of Tables B18 to B34 below illustrate, in an exemplary manner, the […] herbicidal action of the compounds according to the invention, the herbicidal activity being stated in percent.

ABUTH [9] = experiment: Post-emergence action against ABUTH; format: in vivo, Abutilon theophrasti; settings: post-emergence, dosage 80 g/ha, visual assessment about 3 weeks after treatment vs untreated controls
Protocol: as §2

AMARE [10] = experiment: Post-emergence action against AMARE; format: in vivo, Amaranthus retroflexus; settings: post-emergence, dosage 80 g/ha, visual assessment about 3 weeks after treatment vs untreated controls; for pest or weed control at 80 g/ha: Amaranthus retroflexus, 504 h, read-out: Post-emergence action against AMARE (herbicidal action in percent)
Protocol: as §2

MATIN [11] = experiment: Post-emergence action against MATIN; format: in vivo, Matricaria inodora; settings: post-emergence, dosage 80 g/ha, visual assessment about 3 weeks after treatment vs untreated controls
Protocol: as §2

PHBPU = experiment: Post-emergence action against PHBPU; format: in vivo, Pharbitis purpurea; settings: post-emergence, dosage 80 g/ha
Protocol: as §2

STEME [12] = experiment: Post-emergence action against STEME; format: in vivo, Stellaria media; settings: post-emergence, dosage 80 g/ha; for pest or weed control at 80 g/ha: Stellaria media, 504 h
Protocol: as §2

VIOTR [13] = experiment: Post-emergence action against VIOTR; format: in vivo, Viola tricolor; settings: post-emergence, dosage 80 g/ha
Protocol: as §2

AVEFA = experiment: Pre-emergence action against AVEFA; format: in vivo, Avena fatua; settings: dosage 320 g/ha, scored visually after 3 weeks vs untreated controls
From the text: as §1

VERPE [14] = experiment: Post-emergence action against VERPE; format: in vivo, Veronica persica; settings: dosage 80 g/ha; for pest or weed control at 80 g/ha: Veronica persica, 504 h
Protocol: as §2

Structure (SMILES) | Pre-emergence action against ABUTH (herbicidal activity) (ABUTH [2]) [%] | Pre-emergence action against AMARE (herbicidal activity) (AMARE [3]) [%] | Pre-emergence action against MATIN (MATIN [4]) [%] | Pre-emergence action against STEME (STEME [5]) [%] | Pre-emergence action against VIOTR (VIOTR [6]) [%] | Pre-emergence action against VERPE (VERPE [7]) [%] | Post-emergence action against ABUTH (herbicidal action in percent) (ABUTH [9]) [%] | Post-emergence action against AMARE (herbicidal action in percent) (AMARE [10]) [%] | Post-emergence action against MATIN (herbicidal action in percent) (MATIN [11]) [%] | Post-emergence action against PHBPU (PHBPU) | Post-emergence action against STEME (STEME [12]) | also measured
CCCn1nnnc1NC(=O)c1ccc(C(F)(F)F)c(C(=O)C(C)C)c1Cl [3-140] | 100 | 100 | 100 | 100 | 100 | 100 | 100 | 80 | 90 | 90 | 90 | Pre-emergence action against ALOMY (herbicidal activity in percent) (ALOMY): 90%; Pre-emergence action against ECHCG (herbicidal activity) (ECHCG [1]): 90%; SETVI (Table B8, pre-emergence herbicidal activity) (SETVI): 90%; Post-emergence action against ECHCG (herbicidal action in percent) (ECHCG [8]): 100%; Post-emergence action against VIOTR (VIOTR [13]): 100
CCn1nnnc1NC(=O)c1ccc(C(F)(F)F)c(C(=O)C2CCCC2)c1Cl [2-154] | – | – | – | – | – | – | 90 | 100 | – | 90 | 90 | –
CCn1nnnc1NC(=O)c1ccc(C(F)(F)F)c(C(=O)C2CCCCC2)c1SC [2-285] | 100 | 100 | 90 | 100 | 100 | 90 | 90 | 90 | 80 | – | 80 | Pre-emergence action against AVEFA (herbicidal activity) (AVEFA): 80%; Pre-emergence action against ECHCG (herbicidal activity) (ECHCG [1]): 80%
CCCn1nnnc1NC(=O)c1ccc(C)c(C(=O)CC)c1Cl [3-135] | – | 90 | 90 | 90 | – | 80 | – | 90 | 80 | 90 | 100 | Pre-emergence action against ALOMY (herbicidal activity in percent) (ALOMY): 80%; Pre-emergence action against ECHCG (herbicidal activity) (ECHCG [1]): 90%; Post-emergence action against ECHCG (herbicidal action in percent) (ECHCG [8]): 80%
CCn1nnnc1NC(=O)c1ccc(Cl)c(C(=O)c2cccs2)c1Cl [2-282] | 100 | 80 | – | 80 | – | – | – | – | – | – | – | –
CCn1nnnc1NC(=O)c1ccc(Cl)c(C(=O)C2CCCC2)c1Cl [2-281] | – | 90 | 90 | 90 | 100 | 90 | – | 90 | 80 | 100 | 100 | Post-emergence action against VIOTR (VIOTR [13]): 90; Post-emergence action against VERPE (VERPE [14]): 80
CCCn1nnnc1NC(=O)c1ccc(C(F)(F)F)c(C(=O)C2CCCCC2)c1Cl [3-155] | 100 | 90 | – | 100 | – | – | 80 | 90 | – | – | 80 | –
CCC(=O)c1c(C)ccc(C(=O)Nc2nnnn2C)c1Cl [1-135] | – | – | – | – | – | – | – | – | – | – | – | pest or weed control at 320 g/ha (ECHCG [1]; Echinochloa crus-galli, 504 h, read-out: Pre-emergence action against ECHCG (herbicidal activity)): 90%; pest or weed control at 320 g/ha (AMARE [3]): 100%; pest or weed control at 320 g/ha (MATIN [4]): 90%; pest or weed control at 320 g/ha (STEME [5]; Stellaria media, 504 h): 90%; pest or weed control at 320 g/ha (VERPE [7]): 90%; pest or weed control at 80 g/ha (ECHCG [8]; Echinochloa crus-galli, 504 h, read-out: Post-emergence action against ECHCG (herbicidal action in percent)): 80%; pest or weed control at 80 g/ha (AMARE [10]): 90%; pest or weed control at 80 g/ha (MATIN [11]; Tripleurospermum inodorum, 504 h, read-out: Post-emergence action against MATIN (herbicidal action in percent)): 90%; pest or weed control at 80 g/ha (STEME [12]): 100%; pest or weed control at 80 g/ha (VIOTR [13]; Viola tricolor, 504 h): 90%; pest or weed control at 80 g/ha (VERPE [14]): 80%
CCCn1nnnc1NC(=O)c1ccc(C(F)(F)F)c(C(=O)c2cc(F)cc(F)c2)c1Cl [3-282] | – | – | – | – | 90 | – | 80 | 80 | – | 90 | – | –
CCn1nnnc1NC(=O)c1ccc(C(F)(F)F)c(C(=O)C(F)(F)F)c1Cl [2-162] | 100 | 90 | – | 100 | 100 | – | – | 90 | – | 100 | 100 | Post-emergence action against VIOTR (VIOTR [13]): 100
CC(=O)c1c(C(F)(F)F)ccc(C(=O)Nc2nnnn2C)c1C [1-14] | – | – | – | – | – | – | – | – | – | – | – | pest or weed control at 320 g/ha (VERPE [7]): 90%; pest or weed control at 80 g/ha (ABUTH [9]; Abutilon theophrasti, 504 h, read-out: Post-emergence action against ABUTH (herbicidal action in percent)): 90%; pest or weed control at 80 g/ha (AMARE [10]): 80%; pest or weed control at 80 g/ha (VERPE [14]): 80%
COc1ccc(C(=O)c2c(Cl)ccc(C(=O)Nc3nnnn3C)c2Cl)cc1 [1-283] | 90 | – | – | – | – | – | – | – | – | – | 80 | –
Cn1nnnc1NC(=O)c1ccc(Cl)c(C(=O)c2cccs2)c1Cl [1-282] | – | – | – | – | – | – | – | – | – | – | – | pest or weed control at 320 g/ha (ABUTH [2]; Abutilon theophrasti, 504 h, read-out: Pre-emergence action against ABUTH (herbicidal activity)): 90%; pest or weed control at 320 g/ha (AMARE [3]): 80%; pest or weed control at 320 g/ha (MATIN [4]): 80%; pest or weed control at 80 g/ha (AMARE [10]): 80%; pest or weed control at 80 g/ha (STEME [12]): 80%
Cn1nnnc1NC(=O)c1ccc(Cl)c(C(=O)C2CCCC2)c1Cl [1-281] | – | 90 | 90 | 80 | 100 | 100 | – | 90 | 80 | 90 | 100 | Post-emergence action against VIOTR (VIOTR [13]): 100; Post-emergence action against VERPE (VERPE [14]): 80
CCn1nnnc1NC(=O)c1ccc(Cl)c(C(=O)c2ccc(OC)cc2)c1Cl [2-283] | – | – | – | 90 | – | – | 80 | – | – | – | – | –
